The record followed here is patent US10335411B2, “Administration of ubiquitin-activating enzyme inhibitor and radiation” (Millennium Pharmaceuticals, Inc., priority 2014, dated 2019).

This experiment concerns LU-01-0030 xenograft. The experiment is described as follows: second LU-01-0030 xenograft study, Compound 1 and radiation. It is filed as in vivo, mice. An excerpt: In a second study with the LU-01-0030 xenograft model, 6-8 week old female BALB/c nude (Shanghai Sino-British SIPPR/BK Laboratory Animal Co., LTD.) mice were implanted subcutaneously with approximate 20-30 mm^3 LU-01-0030 tumor slices in the right flank. When the mean tumor volume reached approximately 182 mm^3, the animals were randomized into 6 treatment groups (n=8/group).
Compound 1 [((1R,2R,3S,4R)-2,3-dihydroxy-4-(2-(3-(trifluoromethylthio) ? phenyl)pyrazolo[1,5-a]pyrimidin-7-ylamino)cyclopentyl)methyl sulfamate] is formulated in 10% HPbCD in sterile water and administered intravenously on days 0, 3, 7, 10, 14, 17 in the LU-01-0266 and HN-13-0007 models and on days 0, 3, 8, 11, 15, 18 in the ST-02-0004 model and in the second study with the LU-01-0030 model. Compound 1 formulation was prepared weekly and stored at room temperature in the dark.
Beam-focused radiation was delivered using 4 Gray dosed on day 0 in the second study for the LU-01-0030 model.
Tumors were measured twice weekly using vernier calipers. Tumor volumes were calculated using the following formula: (0.5×[length×width^2]). Treatment groups and dosing/treatment schedules are indicated in Tables 1a, 2a, 3a, 4a, and 5a below. Tumor size and body weight are measured approximately twice a week for the duration of the study. Mice are euthanized when their tumor volume reached approximately 1000 mm^3. Tumor growth continued to be monitored after the dosing period in some studies. In Tables 1a, 2a, 3a, 4a, and 5a tumor volumes are shown for HN-13-0014 (day 21), LU-01-0030 (day 21), the second LU-01-0030 study (day 20), LU-01-0266 (day 20), ST-02-0004 (day 21) and FIN-13-0007 (day 24), respectively. Average tumor volume is reported as a function of time for selected groups of selected studies.
Measurements from day 0 to day 20, day 21 or day 24 are analyzed as specified in Tables below. All tumor volumes have a value of 1 added to them before log10 transformation. For each animal, the log tumor volume at day 0 is subtracted from the log tumor volume on the subsequent days. This difference vs. time is used to calculate an area under the curve (AUC) for each animal using the trapezoid rule. In instances when an animal in a treatment group is removed early from the study, the last observed tumor value is carried forward through all subsequent time points. The synergy score for the combination of agents A and B is defined as 100*(mean(AUCAB)−mean(AUCA)−mean(AUCB)+mean(AUCctl))/mean(AUCctl): where AUCAB, AUCA, AUCB, and AUCctl are the AUC values for animals in the combination group, the A group, the B group, and the control group, respectively. The standard error of the synergy score is computed based on the variation in the AUC values among the animals. […] If the P-value is above 0.05, then the combination is considered to be additive. If the P-value is below 0.05, and the synergy score is less than zero, then the combination is considered to be synergistic. If the P-value is below 0.05 and the synergy score was greater than zero, but the mean AUC for the combination was lower than the lowest mean AUC among the two single agent treatments, then the combination was sub-additive. If the P-value is below 0.05 and if the synergy score was greater than zero, and the mean AUC for the combination was greater than the mean AUC for at least one of the single agent treatments, then the combination was antagonistic.

The mark [1] stands for this setting: 6.25 mg/kg Compound 1 + 4 Gy Radiation D0.
The mark [2] stands for this setting: 15 mg/kg Compound 1 + 4 Gy Radiation D0.

Consider `NS(=O)(=O)OC[C@H]1C[C@@H](Nc2ccnc3cc(-c4cccc(SC(F)(F)F)c4)nn23)[C@H](O)[C@@H]1O` [Compound 1, ((1R,2R,3S,4R)-2,3-dihydroxy-4-(2-(3-(trifluoromethylthio)phenyl)pyrazolo[1,5-a]pyrimidin-7-ylamino)cyclopentyl)methyl sulfamate], for which the Classification result by setting is: under setting [1], “Additive (If the P-value is above 0.05, then the combination is considered to be additive)”; under setting [2], “Additive (If the P-value is above 0.05, then the combination is considered to be additive)”. For the same molecule, the Synergy score was −74.5 under setting [1] and −10.3 under setting [2]. The “Tumor Volume Day 20” value stood at 83.8 mm^3 (6.25 mg/kg Compound 1 IV D 0, 3, 8, 11, 15, 18 + 4 Gy Radiation Beam D 0); 648.9 mm^3 (6.25 mg/kg Compound 1 IV D 0, 3, 8, 11, 15, 18, single agent); 2.04 mm^3 (15 mg/kg Compound 1 IV D 0, 3, 8, 11, 15, 18 + 4 Gy Radiation Beam D 0); 67.8 mm^3 (15 mg/kg Compound 1 IV D 0, 3, 8, 11, 15, 18, single agent). In addition, the combination effect entry (Compound 1 with 4 Gy radiation) is reported as “additive combination effect”.
